Test: Solubility in water
Format: physicochemical
Details: aqueous solubility determined at about 22° C. unless otherwise specified, read-out: solubility in water
From the text: The invention is useful for CETP inhibitors which have sufficiently low aqueous solubility, low bioavailability or slow rate of absorption such that it is desirable to increase their concentration in an aqueous environment of use. Therefore, anytime one finds it desirable to raise the aqueous concentration of the CETP inhibitor in a use environment, the invention will find utility.

| solubility [µg/mL] | Compound |
| --- | --- |
| < 1 | CCc1cc(Oc2cccc(N(Cc3cccc(OC(F)(F)C(F)F)c3)C[C@@H](O)C(F)(F)F)c2)ccc1Cl [Drug 11, (2R)-3-[[3-(4-chloro-3-ethylphenoxy)phenyl][[3-(1,1,2,2-tetrafluoroethoxy)phenyl]methyl]amino]-1,1,1-trifluoro-2-propanol] |
| < 1 | CC[C@@H]1C[C@H](N(Cc2cc(C(F)(F)F)cc(C(F)(F)F)c2)C(=O)OC)c2cc(C(F)(F)F)ccc2N1C(=O)OC(C)C [Drug 12, [2R,4S]4-[(3,5-bis-trifluoromethyl-benzyl)-methoxycarbonyl-amino]-2-ethyl-6-trifluoromethyl-3,4-dihydro-2H-quinoline-1-carboxylic acid isopropyl ester] |

From patent US8389011B2, “Pharmaceutical compositions of cholesteryl ester transfer protein inhibitors” (Bend Research, Inc., priority 2000, dated 2013)
